# Source: patent US4176116A, “Dipeptide derivatives” (Hoffmann-La Roche Inc., priority 1976, dated 1979)
# Peptide text beside a SMILES is read from it. * marks the point of attachment. Tos = Cc1ccc(S(=O)(=O)*)cc1; Isobutyryl = CC(C)C(=O)*; Pentanoyl = CCCCC(=O)*; PhAc = O=C(Cc1ccccc1)*; Piv = CC(C)(C)C(=O)*; Bz = O=C(c1ccccc1)*
# Target: porcine pancreatic elastase (Sus scrofa, UniProt P00772)
# Test: in vitro elastase inhibition, test method of Visser and Blout
# Type: biochemical
# Settings: porcine pancreatic elastase as the enzyme; read-out: Ki (inhibitor constant)
# Text: Acta 268 (1972) 257, using porcine pancreatic elastase as the enzyme. The results obtained with representative dipeptide derivatives in this test are given in Table I hereinafter, the Ki being the inhibitor constant in millimoles per liter: […]
# porcine pancreatic elastase, sequence (P00772 27-266): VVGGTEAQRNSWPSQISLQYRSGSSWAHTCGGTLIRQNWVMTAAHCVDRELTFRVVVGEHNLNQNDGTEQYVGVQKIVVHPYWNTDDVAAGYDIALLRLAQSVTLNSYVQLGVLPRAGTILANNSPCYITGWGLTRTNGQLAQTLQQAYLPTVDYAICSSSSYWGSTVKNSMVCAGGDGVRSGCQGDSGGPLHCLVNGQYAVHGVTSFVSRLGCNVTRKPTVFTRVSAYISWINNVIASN
row,Ki,SMILES
1,80 µM,CCCCC(=O)N[C@@H](C)C(=O)N1CCC[C@H]1C(=O)NCC [N-(n-Valeryl)-L-alanyl-L-proline ethylamide] (Pentanoyl-Ala-Pro-NHEt)
2,120 µM,CCNC(=O)[C@H](C)NC(=O)[C@H](C)NC(=O)c1ccccc1 [N-Benzoyl-L-alanyl-L-alanine ethylamide] (Bz-Ala-Ala-NHEt)
3,26 µM,CCNC(=O)[C@@H]1CCCN1C(=O)[C@H](C)NC(=O)c1ccccc1 [N-Benzoyl-L-alanyl-L-proline ethylamide] (Bz-Ala-Pro-NHEt)
4,10 µM,CCNC(=O)[C@@H]1CCCN1C(=O)[C@H](C)NC(=O)C1CCCCC1 [N-Cyclohexylcarbonyl-L-alanyl-L-proline ethylamide]
5,60 µM,CCNC(=O)[C@@H]1CCCN1C(=O)[C@H](C)NC(=O)C(C)C [N-Isobutanoyl-L-alanyl-L-proline ethylamide] (Isobutyryl-Ala-Pro-NHEt)
6,90 µM,CCNC(=O)[C@@H]1CCCN1C(=O)[C@H](C)NC(=O)C(C)(C)C [N-Pivaloyl-L-alanyl-L-proline ethylamide] (Piv-Ala-Pro-NHEt)

row,SMILES,Ki
1,CCNC(=O)[C@@H]1CCCN1C(=O)[C@H](C)NC(=O)Cc1ccccc1 [N-Phenacetyl-L-alanyl-L-proline ethylamide] (PhAc-Ala-Pro-NHEt),86 µM

# Target: T1, human granulocyte elastase (Homo sapiens, UniProt P08246)
# T1 sequence (P08246 30-267): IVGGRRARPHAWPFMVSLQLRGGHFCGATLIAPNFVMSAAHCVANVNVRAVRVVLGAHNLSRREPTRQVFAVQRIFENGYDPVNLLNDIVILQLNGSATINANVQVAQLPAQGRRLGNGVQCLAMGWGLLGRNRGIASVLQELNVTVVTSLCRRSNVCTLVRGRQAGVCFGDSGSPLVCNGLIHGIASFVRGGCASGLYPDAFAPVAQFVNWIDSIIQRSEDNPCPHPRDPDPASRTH
# Test: as above
# Type: biochemical
# Settings: human granulocyte elastase as the enzyme; read-out: I50 (concentration which gives 50% inhibition of the human granulocyte elastase)
# Text: Acta 268 (1972) 257, using porcine pancreatic elastase as the enzyme. The results obtained with representative dipeptide derivatives in this test are given in Table I hereinafter, the Ki being the inhibitor constant in millimoles per liter:
# The result obtained with a representative dipeptide derivative in this test is given in Table II hereinafter, the I50 being the concentration in millimoles per liter which gives 50% inhibition of the human granulocyte elastase: […]
row,IC50,SMILES
1,900 µM,CCNC(=O)[C@@H]1CCCN1C(=O)[C@H](C)NS(=O)(=O)c1ccc(C)cc1 [N-(p-Toluenesulphonyl)-L-alanyl-L-proline ethylamide] (Tos-Ala-Pro-NHEt)
